pIC50: −log10 of the molar value.

The subject of one assay is A375 malignant melanoma. Kind of assay: Cell Proliferation Inhibition Assay, A375 (14C-thymidine). Format: cell-based. To be noted: Homo sapiens, A-375. An excerpt:
Cell Proliferation Inhibition Assay
The ability of a test compound to inhibit unregulated cell proliferation may be determined by measuring incorporation of ^14C-labelled thymidine into newly synthesized DNA within cell lines derived from carcinomas originating from several tissues. Accordingly, the effect of a test compound on proliferation of cells with a variety of phenotypes may be determined.
Carcinoma cell lines used include the HeLa cervical adenocarcinoma from the American Type Culture Collection (ATCC Cat. #CCL2), A375 malignant melanoma (ATCC Cat. #CRL-1619), HCT-116 colon carcinoma (ATCC Cat. #CCL-247), SKBR3 breast carcinoma (ATCC Cat. #HTB-30) and BT474 breast carcinoma (ATCC Cat. #HTB-20).
The carcinoma cells were trypsinized and counted. The cells (3000-8000 count) were added to each well of a 96-well CytoStar tissue culture treated scintillating microplate (Amersham #RPNQ0160) in complete medium (100 μL) and the plate was then incubated in complete medium for 24 hrs at 37° C. in an inert atmosphere containing 5% CO2.
Test compound (1 μL) in 100% DMSO was added to the plate test-wells with DMSO only added to control-wells. The plate was incubated in complete medium for a second 24 hr period at 37° C. in an atmosphere containing 5% CO2.
An aliquot of a solution of Methyl ^14C-thymidine (56 mC/mmol) (NEN #NEC568 or AMersham #CFA532) and complete medium (20 uL to provide 0.2 μCl/well) was then added to each well and the plate was incubated for a third 24 hr period at 37° C. in an atmosphere containing 5% CO2.
The plate contents were then discarded, the plate washed twice with PBS (200 μL) and then PBS (200 μL) was added to each well. The plate was sealed and the degree of methyl ^14C-thymidine incorporation was quantified on a Packard Top Count.
Cell proliferation of the Hela cell line was measured using the ATP-Lite method as described in the ATP Lite Kit (Perkin-Elmer Kit Number 6106941) or the C^14 method as described above. Cell proliferation of the other cell lines was measured using the C^14 method.

Another assay has as its target T1, EGFR (Homo sapiens, UniProt P00533).
T1 construct: The intracellular portion of EGFR started at nucleotide 2189 (corresponding to amino acid 667) and ended at the termination codon; made in house; host or cells: Sf9 insect cells (baculovirus)
Nature of the assay: EGFR Kinase Assay. Format: biochemical. To be noted: for pIC50: GST-EGFR, ATP 5 μM; for inhibition at 2 µM: test concentration of 2 μM, compounds without an IC50, read-out: EGFR inhibition in percent. In a few lines: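 Potency came from triplicate 16-point half-log titrations starting at 200 uM, with IC50 fitted from % inhibition against log concentration, or % inhibition at 2 μM otherwise. Reaction: Sf9-made GST–EGFR cytoplasmic region (aa 667 onward), biotin-polyGluTyr, 5 μM ATP with 33P tracer, pH 8.0 Tris/Mg/vanadate/DTT, 30 °C for 1 h; captured on streptavidin Flashplates and counted.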

T1 sequence (P00533 669-1210 limits assumed): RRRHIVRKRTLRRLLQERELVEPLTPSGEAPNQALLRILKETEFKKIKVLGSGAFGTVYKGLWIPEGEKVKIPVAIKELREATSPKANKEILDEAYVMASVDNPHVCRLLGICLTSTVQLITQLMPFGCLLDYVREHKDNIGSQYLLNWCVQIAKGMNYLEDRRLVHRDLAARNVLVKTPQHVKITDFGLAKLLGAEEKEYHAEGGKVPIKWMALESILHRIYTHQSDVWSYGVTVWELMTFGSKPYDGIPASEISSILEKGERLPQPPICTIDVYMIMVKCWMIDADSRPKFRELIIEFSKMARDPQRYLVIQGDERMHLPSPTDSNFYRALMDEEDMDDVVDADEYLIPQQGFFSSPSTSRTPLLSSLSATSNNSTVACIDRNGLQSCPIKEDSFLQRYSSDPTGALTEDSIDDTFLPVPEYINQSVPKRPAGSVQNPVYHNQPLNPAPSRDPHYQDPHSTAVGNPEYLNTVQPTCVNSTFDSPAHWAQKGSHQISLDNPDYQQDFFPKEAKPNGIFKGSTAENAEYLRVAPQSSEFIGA

For orientation: pIC50 means −log10 of the IC50, conventionally taken in molar units. Lower therefore signals a high IC50. `O=C(Nc1ccc(N2CCOCC2)cc1)c1sc2ncnc3c2c1NC(=O)N3c1ccc2c(ccn2Cc2cccc(F)c2)c1` [Cpd 94, 5-[1-(3-fluoro-benzyl)-1H-indol-5-yl]-4-oxo-4,5-dihydro-3H-1-thia-3,5,6,8-tetraaza-acenaphthylene-2-carboxylic acid (4-morpholin-4-yl-phenyl)-amide]: the pIC50 in the assay with A375 malignant melanoma is 4.00; on EGFR, 6.58.
Regarding `COc1ccc(NC(=O)c2sc3ncnc4c3c2NC(=O)N4c2ccc(OCc3ccccn3)c(Cl)c2)cc1OC` [Cpd 48, 5-[3-chloro-4-(pyridin-2-ylmethoxy)-phenyl]-4-oxo-4,5-dihydro-3H-1-thia-3,5,6,8-tetraaza-acenaphthylene-2-carboxylic acid (3,4-dimethoxy-phenyl)-amide], the pIC50 in the assay with A375 malignant melanoma was 4.76; on EGFR, 7.21.
In the same order, the values of `Cc1ccc(Br)cc1N1C(=O)Nc2c(C(=O)Nc3ccc(CN4CCOCC4)cc3)sc3ncnc1c23` [Cpd 109, 5-(5-bromo-2-methyl-phenyl)-4-oxo-4,5-dihydro-3H-1-thia-3,5,6,8-tetraaza-acenaphthylene-2-carboxylic acid (4-morpholin-4-ylmethyl-phenyl)-amide] are 5.00 and 6.46.
In the same order, the values of `O=C(O)c1sc2ncnc3c2c1NC(=O)N3c1ccc2c(cnn2Cc2cccc(F)c2)c1` [Cpd 79, 5-[1-(3-fluoro-benzyl)-1H-indazol-5-yl]-4-oxo-4,5-dihydro-3H-1-thia-3,5,6,8-tetraaza-acenaphthylene-2-carboxylic acid] are 4.00 and 6.52.
In the same order, the values of `O=C(Nc1ccc(CN2CCOCC2)cc1)c1sc2ncnc3c2c1NC(=O)N3c1ccc(OCc2ccccn2)c(Cl)c1` [Cpd 52, 5-[3-chloro-4-(pyridin-2-ylmethoxy)-phenyl]-4-oxo-4,5-dihydro-3H-1-thia-3,5,6,8-tetraaza-acenaphthylene-2-carboxylic acid (4-morpholin-4-ylmethyl-phenyl)-amide] are 4.00 and 7.29.
Take `CCOC(=O)c1sc2ncnc3c2c1NC(=O)N3c1ccc2c(cnn2Cc2cccc(F)c2)c1` [Cpd 78, 5-[1-(3-fluoro-benzyl)-1H-indazol-5-yl]-4-oxo-4,5-dihydro-3H-1-thia-3,5,6,8-tetraaza-acenaphthylene-2-carboxylic acid ethyl ester]: the pIC50 was 4.00 with A375 malignant melanoma and 5.65 at EGFR.
In the same order, the values of `CN1CCC(NC(=O)c2sc3ncnc4c3c2NC(=O)N4c2ccc3c(ccn3Cc3cccc(F)c3)c2)CC1` [Cpd 92, 5-[1-(3-fluoro-benzyl)-1H-indol-5-yl]-4-oxo-4,5-dihydro-3H-1-thia-3,5,6,8-tetraaza-acenaphthylene-2-carboxylic acid (1-methyl-piperidin-4-yl)-amide] are 5.31 and 7.35.
In the same order, the values of `O=C(Nc1ccc(CN2CCOCC2)cc1)c1sc2ncnc3c2c1NC(=O)N3c1ccc(Oc2ccc(F)cc2)cc1` [Cpd 110, 5-[4-(4-fluoro-phenoxy)-phenyl]-4-oxo-4,5-dihydro-3H-1-thia-3,5,6,8-tetraaza-acenaphthylene-2-carboxylic acid (4-morpholin-4-ylmethyl-phenyl)-amide] are 4.00 and 7.47.
The like results for `O=C(Nc1ccc(CN2CCOCC2)cc1)c1sc2ncnc3c2c1NC(=O)N3c1cccc(Br)c1` [Cpd 36, 5-(3-bromo-phenyl)-4-oxo-4,5-dihydro-3H-1-thia-3,5,6,8-tetraaza-acenaphthylene-2-carboxylic acid (4-morpholin-4-ylmethyl-phenyl)-amide] were, in that order, 5.00 and 6.74.
As usually defined, the inhibition is the relative decrease from the control value, in per cent. `CCOC(=O)c1sc2ncnc3c2c1NC(=O)N3c1ccc(Oc2ccc(F)cc2)cc1` [Cpd 101, 5-[4-(4-fluoro-phenoxy)-phenyl]-4-oxo-4,5-dihydro-3H-1-thia-3,5,6,8-tetraaza-acenaphthylene-2-carboxylic acid ethyl ester] had a pIC50 with A375 malignant melanoma of 4.00. The inhibition at 2 µM on EGFR turned out to be 18%.
The like results for `CCOC(=O)c1sc2ncnc3c2c1NC(=O)N3c1cc(Br)ccc1C` [Cpd 103, 5-(5-bromo-2-methyl-phenyl)-4-oxo-4,5-dihydro-3H-1-thia-3,5,6,8-tetraaza-acenaphthylene-2-carboxylic acid ethyl ester] were, in that order, 4.00 and 21%.
For the compound `O=C(Nc1ccc(CN2CCCCC2)cc1)c1sc2ncnc3c2c1NC(=O)N3c1ccc2c(ccn2Cc2cccc(F)c2)c1` [Cpd 87, 5-[1-(3-fluoro-benzyl)-1H-indol-5-yl]-4-oxo-4,5-dihydro-3H-1-thia-3,5,6,8-tetraaza-acenaphthylene-2-carboxylic acid (4-piperidin-1-ylmethyl-phenyl)-amide], the pIC50 with A375 malignant melanoma is 5.17; on EGFR, 6.95.
Take `O=C(O)c1sc2ncnc3c2c1NC(=O)N3c1ccc2c(ccn2Cc2cccc(F)c2)c1` [Cpd 77, 5-[1-(3-fluoro-benzyl)-1H-indol-5-yl]-4-oxo-4,5-dihydro-3H-1-thia-3,5,6,8-tetraaza-acenaphthylene-2-carboxylic acid]: the pIC50 is 4.00 with A375 malignant melanoma and 6.79 on EGFR.
The like results for `O=C(Nc1ccc(CN2CCCCC2)cc1)c1sc2ncnc3c2c1NC(=O)N3c1ccc2c(cnn2Cc2cccc(F)c2)c1` [Cpd 80, 5-[1-(3-fluoro-benzyl)-1H-indazol-5-yl]-4-oxo-4,5-dihydro-3H-1-thia-3,5,6,8-tetraaza-acenaphthylene-2-carboxylic acid (4-piperidin-1-ylmethyl-phenyl)-amide] were, in that order, 4.99 and 7.44.
As for `Cc1ccc(N2C(=O)Nc3c(C(=O)NC4CCN(C)CC4)sc4ncnc2c34)cc1Br` [Cpd 116, 5-(3-bromo-4-methyl-phenyl)-4-oxo-4,5-dihydro-3H-1-thia-3,5,6,8-tetraaza-acenaphthylene-2-carboxylic acid (1-methyl-piperidin-4-yl)-amide], the pIC50 in the assay with A375 malignant melanoma was 5.00; on EGFR, 6.84.
In the same order, the values of `O=C(O)c1sc2ncnc3c2c1NC(=O)N3c1ccc(OCc2ccccn2)c(Cl)c1` [Cpd 38, 5-[3-chloro-4-(pyridin-2-ylmethoxy)-phenyl]-4-oxo-4,5-dihydro-3H-1-thia-3,5,6,8-tetraaza-acenaphthylene-2-carboxylic acid] are 4.00 and 6.04.
The like results for `O=C(NCCN1CCOCC1)c1sc2ncnc3c2c1NC(=O)N3c1ccc2c(ccn2Cc2cccc(F)c2)c1` [Cpd 93, 5-[1-(3-fluoro-benzyl)-1H-indol-5-yl]-4-oxo-4,5-dihydro-3H-1-thia-3,5,6,8-tetraaza-acenaphthylene-2-carboxylic acid (2-morpholin-4-yl-ethyl)-amide] were, in that order, 5.00 and 7.15.
Regarding `Cc1ccc(N2C(=O)Nc3c(C(=O)Nc4ccc(CN5CCOCC5)cc4)sc4ncnc2c34)cc1Br` [Cpd 108, 5-(3-bromo-4-methyl-phenyl)-4-oxo-4,5-dihydro-3H-1-thia-3,5,6,8-tetraaza-acenaphthylene-2-carboxylic acid (4-morpholin-4-ylmethyl-phenyl)-amide], the pIC50 is 4.00 in the assay with A375 malignant melanoma and 7.37 against EGFR.

These data come from patent US7579356B2, “Thia-tetraazaacenaphthylene kinase inhibitors” (Janssen Pharmaceutica NV, priority 2005, dated 2009).
